Measurements published in patent US20080076664A1, “Fungicidal Compositions” (priority 2004, published 2008).
Several values for one entry are separate records, joined by “and”; a condition that tells them apart may be missing. Equal values may be shown once.

Assays:
Alternaria solani = test: Fungal growth assay, control of Alternaria solani (Example B-4 a); format: cell-based
Source text: (§1) The action to be expected E for a given active ingredient combination obeys the so-called COLBY formula and can be calculated as follows (COLBY, S. R. “Calculating synergistic and antagonistic responses of herbicide combination”. Weeds, Vol. 15, pages 20-22; 1967):
(§2) According to COLBY, the expected (additive) action of active ingredients A)+B) using p+q ppm of active ingredient is
(§3) If the action actually observed (O) is greater than the expected action (E), then the action of the combination is super-additive, i.e. there is a synergistic effect. In mathematical terms the synergism factor SF corresponds to O/E. In the agricultural practice an SF of ≧1.2 indicates significant improvement over the purely complementary addition of activities (expected activity), while an SF of ≦0.9 in the practical application routine signals a loss of activity compared to the expected activity.
(§4) Conidia—harvested from a freshly grown colony—of the fungus were directly mixed into nutrient broth (PDB potato dextrose broth). After placing a (DMSO) solution of the test compounds into a microtiter plate (96-well format) the nutrient broth containing the fungal spores was added. […] The fungicide interactions in the combinations are calculated according to COLBY method.

Leptosphaeria nodorum = test: Fungal growth assay, control of Leptosphaeria nodorum (Example B-8); format: cell-based
Source text: as §1, §2, §3
Action Against Leptosphaeria nodorum (Glume Blotch)—Fungal Growth Assay
as §4, with “Conidia of” for “Conidia—harvested from a freshly grown colony—of”, “fungus from cryogenic storage” for “fungus”

[1] = component B) alone, 0.022 ppm [mg/L]
[2] = component B) alone, 0.067 ppm [mg/L]
[3] = component B) alone, 0.002 ppm [mg/L]
[4] = component B) alone, 0.007 ppm [mg/L]
[5] = component B) alone, 0.600 ppm [mg/L]
[6] = Cpd Ia alone, 0.0001 ppm [mg/L]
[7] = Cpd Ia alone, 0.0003 ppm [mg/L]
[8] = Cpd Ia alone, 0.0074 ppm [mg/L]

Structure (SMILES) | Observed control in % (% Cobs) (Alternaria solani; [1]) | Observed control in % (% Cobs) (Alternaria solani; [2]) | Observed control in % (% Cobs) (Leptosphaeria nodorum; [3]) | Observed control in % (% Cobs) (Leptosphaeria nodorum; [4]) | Observed control in % (% Cobs) (Alternaria solani; [3]) | Observed control in % (% Cobs) (Alternaria solani; [5]) | Observed control in % (% Cobs) (Leptosphaeria nodorum; [1]) | Observed control in % (% Cobs) (Leptosphaeria nodorum; [2]) | Observed control in % (% Cobs) (Alternaria solani; [4]) | also measured
CO/C=C(/C(=O)OC)c1ccccc1Oc1cc(Oc2ccccc2C#N)ncn1 [Azoxystrobin] | 0% | 31% | 5% | 14% | – | – | – | – | – | –
N#Cc1c(Cl)c(Cl)c(Cl)c(C#N)c1Cl [Chlorotalonil, Chlorothalonil] | – | – | 1% | 0% | 9% | 6% | 0% | 6% | – | –
Cn1cc(C(=O)Nc2ccccc2-c2ccc(C#CC(C)(C)C)cc2)c(C(F)F)n1 [Cpd Ia] | – | – | – | – | – | – | – | – | – | Observed control in % (% Cobs) (Alternaria solani; [6]): 6% and 0%; Observed control in % (% Cobs) (Alternaria solani; [7]): 6% and 0% and 4%; Observed control in % (% Cobs) (Alternaria solani; Cpd Ia alone, 0.0008 ppm [mg/L]): 0%; Observed control in % (% Cobs) (Alternaria solani; [8]): 40% and 46% and 27%; Observed control in % (% Cobs) (Alternaria solani; Cpd Ia alone, 0.0667 ppm [mg/L]): 50% and 60%; Observed control in % (% Cobs) (Leptosphaeria nodorum; [6]): 0% and 2%; Observed control in % (% Cobs) (Leptosphaeria nodorum; [7]): 0%; Observed control in % (% Cobs) (Leptosphaeria nodorum; Cpd Ia alone, 0.0025 ppm [mg/L]): 0%; Observed control in % (% Cobs) (Leptosphaeria nodorum; [8]): 0%; Observed control in % (% Cobs) (Leptosphaeria nodorum; Cpd Ia alone, 0.0222 ppm [mg/L]): 9% and 0% and 5% and 6%; Observed control in % (% Cobs) (Leptosphaeria nodorum; Cpd Ia alone, 0.2000 ppm [mg/L]): 32% and 30%
CC(C1CC1)C(O)(Cn1cncn1)c1ccc(Cl)cc1 (stereo not drawn) [Cyproconazole] | – | – | 3% | 0% | 3% | 15% | – | 4% | 0% | –
Cc1cc(C2CC2)nc(Nc2ccccc2)n1 [Cyprodinil] | 0% | 30% | – | – | 3% | – | – | – | 0% | –
CC(Cc1ccc(C(C)(C)C)cc1)CN1CCCCC1 (stereo not drawn) [Fenpropidin] | – | 0% | – | 4% | 0% | 0% | 0% | – | – | –
N#Cc1c[nH]cc1-c1cccc2c1OC(F)(F)O2 [Fludioxonil] | 0% | 25% | 7% | – | 0% | – | – | 9% | 0% | –
CCCC1COC(Cn2cncn2)(c2ccc(Cl)cc2Cl)O1 (stereo not drawn) [Propiconazole] | – | – | 12% | – | – | – | 11% | – | 0% | –
